Laboratory results reported in PMC9886283, “Specific gene module pair-based target identification and drug discovery” (Frontiers in Pharmacology, 2023).
Where a name gives a salt, the structure may show the parent alone. Read-outs that look alike come from different tables or passages of the source.

Experiments:
[1] = molecular target: PI3Kδ (Homo sapiens, UniProt O00329); assay: PI3Kδ kinase assay (ADP-Glo-based biochemical assay)
Procedure: (§1) This study aims to determine the effect of test compounds on PI3Kα/β/δ enzyme activity using ADP-Glo-based biochemical assay (Vendor: Promega, Cat#: V9102), following the manufacturer’s instruction. […] Then, the IC50s were calculated by fitting % inhibition values and the log of compound concentrations to the hill slope with the variable slope (called the variable slope model or four-parameter dose-response curve), and the log (inhibitor) vs. response curve was built by GraphPad Prism version 7.0 (GraphPad Software). Data are presented as mean ± SEM, with n = 3 for each drug dose.

[2] = molecular target: PI3Kα (Homo sapiens, UniProt P42336); assay: PI3Kα kinase assay (ADP-Glo-based biochemical assay)
Chain of PI3Kα (P42336 whole entry): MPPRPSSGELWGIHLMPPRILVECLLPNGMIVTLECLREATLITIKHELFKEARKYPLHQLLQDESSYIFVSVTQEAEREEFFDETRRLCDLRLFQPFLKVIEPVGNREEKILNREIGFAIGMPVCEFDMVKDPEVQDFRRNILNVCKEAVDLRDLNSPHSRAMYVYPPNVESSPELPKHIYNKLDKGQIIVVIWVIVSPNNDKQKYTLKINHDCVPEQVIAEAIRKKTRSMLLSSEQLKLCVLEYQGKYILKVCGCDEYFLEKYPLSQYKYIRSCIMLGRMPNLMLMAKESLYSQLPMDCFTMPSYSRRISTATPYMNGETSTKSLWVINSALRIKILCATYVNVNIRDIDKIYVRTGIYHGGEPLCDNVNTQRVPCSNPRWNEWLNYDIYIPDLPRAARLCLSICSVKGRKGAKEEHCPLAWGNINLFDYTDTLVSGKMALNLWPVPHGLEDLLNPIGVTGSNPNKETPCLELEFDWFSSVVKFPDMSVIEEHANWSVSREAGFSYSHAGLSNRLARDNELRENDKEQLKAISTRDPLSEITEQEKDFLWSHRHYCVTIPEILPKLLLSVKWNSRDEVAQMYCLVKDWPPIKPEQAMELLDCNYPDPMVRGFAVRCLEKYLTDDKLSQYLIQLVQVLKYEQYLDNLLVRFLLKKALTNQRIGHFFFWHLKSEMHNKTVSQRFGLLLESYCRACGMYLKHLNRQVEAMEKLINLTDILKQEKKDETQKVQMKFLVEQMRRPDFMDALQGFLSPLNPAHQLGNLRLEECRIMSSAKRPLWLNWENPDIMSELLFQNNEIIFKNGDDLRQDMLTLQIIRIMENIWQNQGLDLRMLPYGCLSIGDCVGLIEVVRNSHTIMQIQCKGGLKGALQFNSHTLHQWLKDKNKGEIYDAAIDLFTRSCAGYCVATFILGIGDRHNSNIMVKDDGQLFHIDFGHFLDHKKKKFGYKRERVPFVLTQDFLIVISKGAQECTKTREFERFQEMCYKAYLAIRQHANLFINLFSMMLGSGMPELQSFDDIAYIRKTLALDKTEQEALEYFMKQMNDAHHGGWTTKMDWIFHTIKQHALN
Chain of PI3Kα (P27986 whole entry partner): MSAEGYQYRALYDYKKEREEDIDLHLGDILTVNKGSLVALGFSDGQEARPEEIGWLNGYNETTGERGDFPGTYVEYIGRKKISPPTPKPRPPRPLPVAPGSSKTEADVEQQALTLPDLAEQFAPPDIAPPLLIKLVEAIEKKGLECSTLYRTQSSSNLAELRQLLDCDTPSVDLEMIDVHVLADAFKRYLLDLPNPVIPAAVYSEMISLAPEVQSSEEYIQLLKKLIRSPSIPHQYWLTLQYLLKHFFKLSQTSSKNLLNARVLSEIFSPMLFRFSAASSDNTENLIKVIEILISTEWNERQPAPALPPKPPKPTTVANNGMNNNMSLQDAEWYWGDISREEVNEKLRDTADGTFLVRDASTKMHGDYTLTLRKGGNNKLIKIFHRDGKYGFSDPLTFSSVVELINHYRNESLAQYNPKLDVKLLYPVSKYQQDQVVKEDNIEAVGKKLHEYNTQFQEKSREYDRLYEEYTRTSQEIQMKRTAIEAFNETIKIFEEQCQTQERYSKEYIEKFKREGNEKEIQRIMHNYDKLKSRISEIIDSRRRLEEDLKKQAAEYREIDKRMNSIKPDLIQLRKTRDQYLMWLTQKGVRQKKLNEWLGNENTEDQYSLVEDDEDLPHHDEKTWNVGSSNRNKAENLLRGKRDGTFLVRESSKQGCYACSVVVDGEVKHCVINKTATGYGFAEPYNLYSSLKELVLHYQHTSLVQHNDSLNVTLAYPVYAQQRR
Procedure: as §1

[3] = molecular target: PI3Kβ (Homo sapiens, UniProt P42338); assay: PI3Kβ kinase assay (ADP-Glo-based biochemical assay); details: n = 3 per dose
Chain of PI3Kβ (P42338 whole entry): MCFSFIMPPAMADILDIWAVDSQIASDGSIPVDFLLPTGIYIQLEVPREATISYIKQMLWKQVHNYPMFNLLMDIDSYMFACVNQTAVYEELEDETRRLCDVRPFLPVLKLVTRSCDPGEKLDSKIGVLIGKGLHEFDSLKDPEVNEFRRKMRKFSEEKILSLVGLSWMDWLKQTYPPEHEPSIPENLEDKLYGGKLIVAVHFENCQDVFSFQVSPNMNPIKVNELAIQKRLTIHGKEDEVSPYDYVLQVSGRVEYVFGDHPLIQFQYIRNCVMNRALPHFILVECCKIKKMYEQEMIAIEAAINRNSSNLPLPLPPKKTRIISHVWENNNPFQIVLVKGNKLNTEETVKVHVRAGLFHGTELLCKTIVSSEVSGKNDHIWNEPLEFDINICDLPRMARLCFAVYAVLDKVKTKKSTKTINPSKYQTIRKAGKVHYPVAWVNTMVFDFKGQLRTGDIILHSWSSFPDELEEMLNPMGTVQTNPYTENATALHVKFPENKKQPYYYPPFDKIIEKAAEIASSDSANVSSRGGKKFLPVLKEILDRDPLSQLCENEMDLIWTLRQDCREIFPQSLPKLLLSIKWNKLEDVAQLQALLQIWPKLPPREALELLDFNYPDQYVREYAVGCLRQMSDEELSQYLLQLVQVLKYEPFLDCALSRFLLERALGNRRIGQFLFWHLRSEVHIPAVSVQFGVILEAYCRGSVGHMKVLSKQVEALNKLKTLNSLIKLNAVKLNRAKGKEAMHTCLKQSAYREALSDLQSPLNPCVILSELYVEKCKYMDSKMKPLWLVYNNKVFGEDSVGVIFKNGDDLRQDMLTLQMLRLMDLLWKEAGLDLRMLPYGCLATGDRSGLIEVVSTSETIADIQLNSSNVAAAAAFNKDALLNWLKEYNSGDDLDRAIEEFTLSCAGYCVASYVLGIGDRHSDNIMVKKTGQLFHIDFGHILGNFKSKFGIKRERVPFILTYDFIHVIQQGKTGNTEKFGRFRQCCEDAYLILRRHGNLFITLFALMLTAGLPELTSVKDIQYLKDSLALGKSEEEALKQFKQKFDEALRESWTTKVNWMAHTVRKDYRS
Chain of PI3Kβ (P27986 whole entry partner): as the sequence (P27986 whole entry partner) above
Procedure: as §1

[4] = system: N-methyl-D-aspartic acid (NMDA) receptor; details: uncompetitive, low-affinity, non-selective antagonist; ref Lipton, 2007; cited from earlier work
[5] = ADP-Glo, n = 3 per dose, read-out: IC50 PI3Kδ
[6] = ADP-Glo, n = 3 per dose, read-out: IC50 PI3Kα

Chain of PI3Kδ (O00329 whole entry): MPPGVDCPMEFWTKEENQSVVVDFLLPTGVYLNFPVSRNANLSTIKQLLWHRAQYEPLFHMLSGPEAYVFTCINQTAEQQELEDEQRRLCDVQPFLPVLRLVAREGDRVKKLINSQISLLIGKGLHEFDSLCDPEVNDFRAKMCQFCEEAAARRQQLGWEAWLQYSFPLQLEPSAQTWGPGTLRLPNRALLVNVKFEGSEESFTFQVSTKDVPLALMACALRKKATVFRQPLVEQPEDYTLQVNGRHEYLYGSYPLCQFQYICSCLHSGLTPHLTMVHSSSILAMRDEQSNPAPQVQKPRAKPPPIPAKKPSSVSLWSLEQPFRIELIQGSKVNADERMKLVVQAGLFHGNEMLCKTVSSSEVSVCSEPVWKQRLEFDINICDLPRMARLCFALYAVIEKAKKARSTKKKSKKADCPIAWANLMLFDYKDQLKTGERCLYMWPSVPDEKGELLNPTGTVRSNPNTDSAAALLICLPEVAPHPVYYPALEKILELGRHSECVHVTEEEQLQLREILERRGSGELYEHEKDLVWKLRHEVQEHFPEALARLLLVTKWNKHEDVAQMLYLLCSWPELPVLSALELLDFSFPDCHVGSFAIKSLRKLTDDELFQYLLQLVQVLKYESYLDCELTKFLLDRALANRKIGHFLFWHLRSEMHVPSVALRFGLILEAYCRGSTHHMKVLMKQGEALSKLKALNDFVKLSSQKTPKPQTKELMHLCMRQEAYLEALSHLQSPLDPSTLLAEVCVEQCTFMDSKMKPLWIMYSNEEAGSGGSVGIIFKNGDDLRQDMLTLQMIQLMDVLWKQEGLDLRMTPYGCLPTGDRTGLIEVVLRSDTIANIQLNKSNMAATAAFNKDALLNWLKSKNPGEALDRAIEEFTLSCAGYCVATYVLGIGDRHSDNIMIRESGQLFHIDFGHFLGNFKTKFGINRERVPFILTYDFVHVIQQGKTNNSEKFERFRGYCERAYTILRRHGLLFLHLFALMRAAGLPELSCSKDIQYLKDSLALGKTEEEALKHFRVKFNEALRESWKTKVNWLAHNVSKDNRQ
Chain of PI3Kδ (P27986 whole entry partner): as the sequence (P27986 whole entry partner) above

Row | IC50 [1, 5] [µM] | IC50 [2, 6] [µM] | IC50 [3] [µM] | SMILES | affinity for NMDA receptor [4] | IC50 [2] [µM] | IC50 [1] [µM]
1 | 20 | – | – | CC(C)NCCCn1c(Sc2cc3c(cc2I)OCO3)nc2c(N)ncnc21 [PU-H71] | – | – | –
2 | 4.3 | 16 | 8.4 | O=C(c1ccc(OCCN2CCCCC2)cc1)c1c(-c2ccc(O)cc2)sc2cc(O)ccc12 [Raloxifene HCl, raloxifene HCl] | – | – | –
3 | 10 | 19 | 14 | CC/C(=C(\c1ccccc1)c1ccc(OCCN(C)C)cc1)c1ccccc1 [Tamoxifen, tamoxifen] | – | – | –
4 | 28 | 93 | 69 | CO[C@H]1/C=C\C=C(/C)C(=O)NC2=CC(=O)C(NCCN(C)C)=C(C[C@@H](C)C[C@H](OC)[C@H](O)[C@@H](C)/C=C(\C)[C@@H]1OC(N)=O)C2=O [alvespimycin] | – | – | –
5 | 6 | 18 | 8.7 | COc1ccc(CCN2CCC(Nc3nc4ccccc4n3Cc3ccc(F)cc3)CC2)cc1 [astemizole] | – | – | –
6 | – | – | – | CC12CC3CC(C)(C1)CC(N)(C3)C2 [memantine] | micromolar range | – | –
7 | – | – | – | c1nc2nc(Nc3ccc(N4CCOCC4)cc3)nc(NC3CCCCC3)c2[nH]1 [reversine] | – | 12 | 3.5
